# Assay results published in patent US5763433A, “Pharmaceutical compositions containing 3-beta-hydroxylated 6,7-substituted steroid derivatives, and use thereof” (Conservatoire National des Arts et Metiers, priority 1992, dated 1998).
# Legend:
# [1] = tested on: anti-lysozyme IgG; experiment: Immunoenzymatic measurement of anti-lysozyme IgG in serum of mice immunized against lysozyme; assay type: in vivo, C57BL/6 mice; details: for Optical densities +/- SD, anti-lysozyme IgG, 1/180 serial dilution: serum 1/180; for Optical densities +/- SD, anti-lysozyme IgG, 1/180 serial dilution / Optical densities +/- SD, anti-lysozyme IgG, 1/540 serial dilution / Optical densities +/- SD, anti-lysozyme IgG, first serial dilution: s.c., mean of 5 mice; for Optical densities +/- SD, anti-lysozyme IgG, 1/180 serial dilution / Optical densities +/- SD, anti-lysozyme IgG, 1/540 serial dilution: doses and timing as E1; for Optical densities +/- SD, anti-lysozyme IgG, 1/540 serial dilution: serum 1/540; for Optical densities +/- SD, anti-lysozyme IgG, first serial dilution: serum dilution not given, PREG 0,5 g/kg, DHEA 1,0 g/kg, ADIOL 125 mg/kg 1 hour before lysozyme, 7-hydroxy-PREG and 7-hydroxy-DHEA 6,25 mg/kg, 7β-hydroxy-DHEA 50,0 mg/kg, 7- and 7β-hydroxy-ADIOL 25,0 mg/kg with lysozyme; for Optical densities +/- SD, anti-lysozyme IgG, first serial dilution (*): dilution not given, PREG 0,5 g/kg 1 hour before; for Effect on serum anti-lysozyme IgG (in words): steroid administered s.c. simultaneously with lysozyme
# Protocol: The immunity effector effect was tested by subcutaneous injection concomitantly with that of an antigen and the 7-alpha- or 7-beta-hydroxylated derivative into C57BL/6 mice according to a standard immunization protocol (Methods in Enzymology (1980), vol. 70).
# The effect of the compound as cellular immunity effector is measured by the quantity of circulating IgG directed against the antigen 21 days after the injection and after a booster injection 14 days layer.
# Thirty five groups of five 6-weeks old C57BL/6 mice are given a subcutaneous injection of 200 ug of hen egg white lysozyme on days one and fourteen of the immunization protocol. Solutions of DHEA (Sigma D-4500) in dimethyl sulfoxide (DMSO) are injected in the same manner at variable times before the first injection of lysozyme. Amounts ranging from 0.25 and 2 g/kg are used. Ten other groups of 5 mice are given a subcutaneous injection of 6.25 to 50 mg/kg of 7-alpha-hydroxy-DHEA or 7-beta-hydroxy-DHEA dissolved in DMSO at the same time as the first lysozyme injection. Two groups receive only DMSO with lysozyme (controls). The blanks correspond to one group of 5 mice and are not given an injection.
# Three weeks after the first injections the animals, then aged 9 weeks, are decapitated. The blood of each animal is collected and the presence of anti-lysozyme G immunoglobulins (IgG) is measured in serial dilutions of the sera by an immunoenzymatic titration using goat anti-mouse (Fc) IgG immunoglobulin labelled with peroxidase.
# A group of 5 mice is given the subcutaneous injection of 125 mg/kg of 5-androstene-3-beta, 17-beta-diol (ADIOL) one hour prior to the first injection of lysozyme, and two groups of 5 mice are treated with 25 mg/kg of 7-alpha-hydroxy-ADIOL or 7-beta-hydroxy-ADIOL at the time of the first lysozyme injection.
# DHEA or PREG or ADIOL is injected subcutaneously 1 hour before the first lysozyme injection. The 7-hydroxylated derivatives are administered simultaneously with the lysozyme injection. The immunoenzymatic measurement of the anti-lysozyme IgGs in the serial dilutions of the sera of each animal makes use of goat anti-mouse (Fc) IgG immunoglobulin, labelled with peroxidase in 96-well plates treated with lysozyme. The mean value of the optical densities measured in each group of 5 mice is calculated as well as the standard deviation (SD).
# [2] = target: T1, nuclear binding of tritiated dexamethazone (glucocorticoid receptors) (Mus musculus, UniProt P06537); experiment: Displacement of the nuclear binding of tritiated dexamethazone in isolated liver, brain, thymus and spleen cells; design: species or system C57BL/6 mouse; details: for Displacement coefficient for nuclear binding of tritiated dexamethazone, Liver: liver cells, 100-fold excess of steroid over 2-80 nM 3H-dexamethazone, 60 min; for Displacement coefficient for nuclear binding of tritiated dexamethazone, Liver / Displacement coefficient for nuclear binding of tritiated dexamethazone, Brain / Displacement coefficient for nuclear binding of tritiated dexamethazone, Spleen / Displacement coefficient for nuclear binding of tritiated dexamethazone, Thymus: no competitor = zero, unlabelled dexamethazone = 100, mean of triplicate; for Displacement coefficient for nuclear binding of tritiated dexamethazone, Brain: brain cells; for Displacement coefficient for nuclear binding of tritiated dexamethazone, Spleen: spleen cells; for Displacement coefficient for nuclear binding of tritiated dexamethazone, Thymus: thymus cells
# T1 construct: The liver, brain, spleen and thymus are excised and the cells of each organ are recovered; from tissue; host or cells: isolated cells of liver, brain, spleen and thymus of metyrapone-treated C57BL/6 mice
# T1 sequence (P06537 1-792): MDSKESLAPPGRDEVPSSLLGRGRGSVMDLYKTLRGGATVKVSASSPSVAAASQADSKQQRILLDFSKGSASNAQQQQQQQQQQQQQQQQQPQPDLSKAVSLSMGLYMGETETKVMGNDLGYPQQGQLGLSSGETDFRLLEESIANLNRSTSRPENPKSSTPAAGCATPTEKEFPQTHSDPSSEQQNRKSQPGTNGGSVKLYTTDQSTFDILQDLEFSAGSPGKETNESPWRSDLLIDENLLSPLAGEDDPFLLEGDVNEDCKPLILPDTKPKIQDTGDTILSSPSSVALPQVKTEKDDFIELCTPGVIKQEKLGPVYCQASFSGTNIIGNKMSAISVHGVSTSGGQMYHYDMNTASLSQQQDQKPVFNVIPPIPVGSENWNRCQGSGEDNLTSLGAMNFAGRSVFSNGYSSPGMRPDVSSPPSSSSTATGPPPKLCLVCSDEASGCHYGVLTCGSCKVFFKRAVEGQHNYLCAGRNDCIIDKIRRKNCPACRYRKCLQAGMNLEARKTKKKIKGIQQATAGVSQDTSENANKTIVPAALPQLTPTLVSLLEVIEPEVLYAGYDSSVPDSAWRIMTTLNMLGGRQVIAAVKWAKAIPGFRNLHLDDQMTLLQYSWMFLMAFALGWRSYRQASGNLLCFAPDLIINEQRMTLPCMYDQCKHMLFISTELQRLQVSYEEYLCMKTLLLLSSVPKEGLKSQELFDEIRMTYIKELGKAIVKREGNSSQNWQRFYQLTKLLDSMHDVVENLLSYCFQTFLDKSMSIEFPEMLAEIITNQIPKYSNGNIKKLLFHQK
# Protocol: The isolated hepatocytes are incubated for 1 hour at room temperature with increasing concentrations (2-80 nM) of ^3 H-dexamethazone (DEX*). […] The hepatocyte nuclei are then isolated and purified and the radioactivity corresponding to the DEX* still bound is measured and expressed in cpm/10 ug of DNA. The area under the curve DEX* corresponds to zero displacement of the radioactivity. The area under the curve DEX*/DEX which corresponds to the displacement of radioactivity by the same molecule is taken arbitrarily as 100. The areas under the curve obtained with the other steroids makes it possible to calculate by interpolation between the areas zero and 100 their displacement coefficients for the nuclear binding of DEX*.
# The mice are anesthetized with ether and bled, then perfused intracardially with physiological serum containing collagenase B (0.03 g/100 ml) for 10 minutes. […] The quantities of cells obtained are estimated on the base of the measurement of the DNA contained in the preparations.
# The nuclei are recovered and their radioactive content measured as described by the authors cited above.
# The area under the curve of tritiated dexamethazone alone is measured and taken as zero. […] The displacement coefficients found for each of the other steroids are calculated by interpolation on this scale, each result being the mean of a triplicate determination.
# [3] = * calculated from measurements on higher dilutions of the serum, 7-hydroxy-PREG 6,25 mg/kg with lysozyme
Structure (SMILES),"Optical densities +/- SD, anti-lysozyme IgG, 1/180 serial dilution [1]","Optical densities +/- SD, anti-lysozyme IgG, 1/540 serial dilution [1]","Displacement coefficient for nuclear binding of tritiated dexamethazone, Liver [2]",also measured
"C[C@]12CC[C@H]3[C@@H]([C@H](O)C=C4C[C@@H](O)CC[C@@]43C)[C@@H]1CC[C@@H]2O [7-hydroxy-ADIOL, androst-5-ene-3-beta, 7-alpha, 17-beta-triol]","0,14 ± 0,01","0,11 ± 0,01",88,"Optical densities +/- SD, anti-lysozyme IgG, first serial dilution [1]: 0,15 ± 0,02; Displacement of tritiated dexamethazone from nuclear binding / anti-glucocorticoid action (in words) ([2]; 100-fold excess of steroid): demonstrates its anti-glucocorticoid effect"
"CC(=O)[C@H]1CC[C@H]2[C@@H]3[C@H](O)C=C4C[C@@H](O)CC[C@]4(C)[C@H]3CC[C@]12C [7-hydroxy-PREG, 7-alpha-hydroxy-PREG]",,"0,77 ± 0,05",34,"Optical densities +/- SD, anti-lysozyme IgG, first serial dilution (*) [1, 3]: 4,46 ± 0,30; Optical densities +/- SD, anti-lysozyme IgG, 1/180 serial dilution (*) ([1]; * calculated from measurements on higher dilutions of the serum, 1/180, 7-hydroxy-PREG 6,25 mg/kg with lysozyme): 2,20 ± 0,14; Displacement coefficient for nuclear binding of tritiated dexamethazone, Brain ([2]; 100-fold excess of steroid): 38; Displacement coefficient for nuclear binding of tritiated dexamethazone, Spleen ([2]; 100-fold excess of steroid): 81; Displacement coefficient for nuclear binding of tritiated dexamethazone, Thymus ([2]; 100-fold excess of steroid): 94"
"C[C@]12CC[C@H]3[C@@H]([C@@H](O)C=C4C[C@@H](O)CC[C@@]43C)[C@@H]1CC[C@@H]2O [7β-hydroxy-ADIOL, androst-5-ene-3-beta,7-beta, 17-beta-triol]","0,18 ± 0,02","0,12 ± 0,01",,"Optical densities +/- SD, anti-lysozyme IgG, first serial dilution [1]: 0,18 ± 0,06"
"C[C@]12CC[C@H](O)CC1=C[C@H](O)[C@@H]1[C@@H]2CC[C@]2(C)C(=O)CC[C@@H]12 [7β-hydroxy-DHEA, 3-beta, 7-beta-dihydroxy-androst-5-en-17-one]","0,31 ± 0,04","0,13 ± 0,01",80,"Optical densities +/- SD, anti-lysozyme IgG, first serial dilution [1]: 0,46 ± 0,06; Effect on serum anti-lysozyme IgG (in words) ([1]; listed as 7-beta-OH-DHEA): effect equivalent to that of DHEA injected 1 hour before the antigen, but at doses 20 times lower; Effect on serum anti-lysozyme IgG (in words) ([1]; listed as 7-beta-hydroxy-DHEA): response identical with that of 1 g/kg of DHEA administered 1 hour prior to that of lysozyme; Displacement coefficient for nuclear binding of tritiated dexamethazone, Brain ([2]; 100-fold excess of steroid): 65"
"CC(=O)[C@H]1CC[C@H]2[C@@H]3CC=C4C[C@@H](O)CC[C@]4(C)[C@H]3CC[C@]12C [PREG, 3-beta-hydroxy-5-pregnen-20-one, reference compound]","1,83 ± 0,48","0,56 ± 0,15",,"Optical densities +/- SD, anti-lysozyme IgG, first serial dilution (*) [1, 3]: 4,67 ± 1,21; Effect on serum concentrations of anti-lysozyme IgG (in words) ([1]; steroid administered s.c. at least one hour prior to the injection of lysozyme): increase the serum concentrations of anti-lysozyme IgG"
"C[C@]12CC[C@H](O)C[C@@H]1[C@@H](O)C[C@@H]1[C@@H]2CC[C@]2(C)C(=O)CC[C@@H]12 [Steroid 6α-OH-ISOA, 3-beta, 6-alpha-dihydroxy-5-alpha-androstane-17-one]",,,63,
"C[C@]12CC[C@H](O)CC1=CC(=O)[C@@H]1[C@@H]2CC[C@]2(C)C(=O)CC[C@@H]12 [Steroid 7-oxo-DHEA, 3-beta-hydroxy-5-androsten-7,17-dione]",,,28,
"C[C@]12CC[C@H](O)C[C@@H]1CC(=O)[C@@H]1[C@@H]2CC[C@]2(C)C(=O)CC[C@@H]12 [Steroid 7-oxo-ISOA, 3-beta-hydroxy-5-alpha-androstane-7,17-dione]",,,84,
"CC(=O)[C@H]1CC[C@H]2[C@@H]3C(=O)C=C4C[C@@H](O)CC[C@]4(C)[C@H]3CC[C@]12C [Steroid 7-oxo-PREG, 3-beta-hydroxy-5-pregnen-7,20-dione]",,,35,
"C[C@]12CC[C@H](O)C[C@@H]1C[C@@H](O)[C@@H]1[C@@H]2CC[C@]2(C)[C@@H](O)CC[C@@H]12 [Steroid 7α-OH-ADIOL, 5-alpha-androstane-3-beta, 7-alpha, 17-beta-triol]",,,83,"Displacement coefficient for nuclear binding of tritiated dexamethazone, Brain ([2]; 100-fold excess of steroid): 96; Displacement coefficient for nuclear binding of tritiated dexamethazone, Spleen ([2]; 100-fold excess of steroid): 125; Displacement coefficient for nuclear binding of tritiated dexamethazone, Thymus ([2]; 100-fold excess of steroid): 96"
"C[C@]12CC[C@H](O)C[C@@H]1C[C@@H](O)[C@@H]1[C@@H]2CC[C@]2(C)C(=O)CC[C@@H]12 [Steroid 7α-OH-ISOA, 3-beta, 7-alpha-dihydroxy-5-alpha-androstane-17-one]",,,102,
"C[C@]12CC[C@H](O)C[C@@H]1C[C@H](O)[C@@H]1[C@@H]2CC[C@]2(C)C(=O)CC[C@@H]12 [Steroid 7β-OH-ISOA, 3-beta, 7-beta-dihydroxy-5-alpha-androstane-17-one]",,,68,
"CC(=O)[C@H]1CC[C@H]2[C@@H]3[C@@H](O)C=C4C[C@@H](O)CC[C@]4(C)[C@H]3CC[C@]12C [Steroid 7β-OH-PREG, 7-beta-hydroxy-pregnenolone]",,,82,
